# In patent US9957263B2, “Bromodomain inhibitors” (AbbVie Inc., priority 2013, dated 2018):
# What was measured:
# [1] = target: BRD4 (BDI_K57-E168) (Homo sapiens (Human), UniProt O60885); assay: TR-FRET bromodomain binding assay, BRD4 first bromodomain; details: His-tagged BD1, Alexa647-labeled probe 100 nM
# In short: (§1)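 Affinity for each isolated His-tagged domain was measured as competition with a fluorescent Alexa647 BET-inhibitor probe in a TR-FRET format at pH 6.0, 1 h room temperature incubation. Ki values were calculated from fitted IC50s, probe Kd and probe level (100 nM BDI, 30 nM BDII).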
# [2] = target: BRD4 (BDII_E352-M457) (Homo sapiens (Human), UniProt O60885); assay: TR-FRET bromodomain binding assay, BRD4 second bromodomain; details: His-tagged BD2, Alexa647-labeled probe 30 nM
# In short: as §1
# [3] = test system: breast cancer cell line MX-1; assay: MX-1 cell line proliferation assay, Method B; assay type: cell-based; details: Homo sapiens, MX1; MX-1 cells, 384-well, 72 hours, Cell Titer Glo; read-out: Cellular proliferation: EC50 Method B
# Description: The impact of compounds of the Examples on cancer cell proliferation was determined using the breast cancer cell line MX-1 (ATCC) in a 3-day proliferation assay and the data are reported in Table 1.
# Method B: MX-1 cells were maintained in RPMI 1640 medium (Sigma) supplemented with 10% FBS at 37 C.° and an atmosphere of 5% CO2. For compound testing, MX-1 cells were plated in 384-well white with clear, flat bottom plates at a density of 750 cells/well in 25 μL of culture media and incubated at 370 overnight to allow cell adhesion and spreading. Ten point compound dilution series were prepared in DMSO via a 3-fold serial dilution from either […] or 1 μM stock and added directly to the appropriate wells of the MX-1 cell plate by an ECHO liquid handler (Labcyte). The final compound concentrations in the wells were 10, 3.25, 1, 0.25, 0.124, 0.040, 0.0124, 0.0031, 0.0015 and 0.0005 μM or 1, 0.33, 0.1, 0.025, 0.0124, 0.004, 0.0012, 0.0003, 0.00015, 0.00005 μM, depending on the concentration of the compound stock solution.
# Luminescence readings from the Cell Titer Glo assay were normalized to the DMSO treated cells and analyzed using Accelrys Assay Explorer 3.3 software with sigmoidal curve fitting to obtain ECsos. The minimum significant ratio (MSR) was determined to evaluate assay reproducibility (Eastwood et al., (2006) J Biomol Screen, 11: 253-261). The overall MSR was determined to be 3.3 and a moving MSR (last six run MSR overtime) has averaged
Structure (SMILES),Ki [1] [nM],Ki [2] [nM],EC50 [3] [nM]
"CCNC(=O)c1cc2c(-c3ccc(C(=O)N(CCN(C)C)c4ccnc(F)c4)cc3Oc3c(C)cccc3C)cn(C)c(=O)c2[nH]1 [Example 185, 4-[4-{[2-(dimethylamino)ethyl](2-fluoropyridin-4-yl)carbamoyl}-2-(2,6-dimethylphenoxy)phenyl]-N-ethyl-6-methyl-7-oxo-6,7-dihydro-1H-pyrrolo[2,3-c]pyridine-2-carboxamide]",2940,14.3,2720
"CCNC(=O)c1cc2c(-c3ccc(C(=O)N(CCC#N)C4CCCCC4)cc3Oc3c(C)cccc3C)cn(C)c(=O)c2[nH]1 [Example 176, 4-{4-[(2-cyanoethyl)(cyclohexyl)carbamoyl]-2-(2,6-dimethylphenoxy)phenyl}-N-ethyl-6-methyl-7-oxo-6,7-dihydro-1H-pyrrolo[2,3-c]pyridine-2-carboxamide]",927,8.65,3910
"CCNC(=O)c1cc2c(-c3ccc(C(=O)N(CCN(CC)CC)c4ccccc4OC)cc3Oc3c(C)cccc3C)cn(C)c(=O)c2[nH]1 [Example 178, 4-[4-{[2-(diethylamino)ethyl](2-methoxyphenyl)carbamoyl}-2-(2,6-dimethylphenoxy)phenyl]-N-ethyl-6-methyl-7-oxo-6,7-dihydro-1H-pyrrolo[2,3-c]pyridine-2-carboxamide]",592,2.5,10000
"CCNC(=O)c1cc2c(-c3ccc(C(=O)N(CC#N)c4ccc(Cl)cc4)cc3Oc3c(C)cccc3C)cn(C)c(=O)c2[nH]1 [Example 169, 4-{4-[(4-chlorophenyl)(cyanomethyl)carbamoyl]-2-(2,6-dimethylphenoxy)phenyl}-N-ethyl-6-methyl-7-oxo-6,7-dihydro-1H-pyrrolo[2,3-c]pyridine-2-carboxamide]",1400,27.8,2170
"CN1CCN(Cc2cc3c(-c4cc(S(C)(=O)=O)ccc4Oc4ccc(F)cc4F)cn(C)c(=O)c3[nH]2)C(c2ccccc2)C1 (stereo not drawn) [Example 188, 4-[2-(2,4-difluorophenoxy)-5-(methylsulfonyl)phenyl]-6-methyl-2-[(4-methyl-2-phenylpiperazin-1-yl)methyl]-1,6-dihydro-7H-pyrrolo[2,3-c]pyridin-7-one]",1.56,151,76.8
"CCCCN(CCC#N)C(=O)c1ccc(-c2cn(C)c(=O)c3[nH]c(C(=O)NCC)cc23)c(Oc2c(C)cccc2C)c1 [Example 184, 4-{4-[butyl(2-cyanoethyl)carbamoyl]-2-(2,6-dimethylphenoxy)phenyl}-N-ethyl-6-methyl-7-oxo-6,7-dihydro-1H-pyrrolo[2,3-c]pyridine-2-carboxamide]",1080,11.1,2840
"CCNC(=O)c1cc2c(-c3ccc(C(=O)N(Cc4ccccc4)Cc4ccc(Cl)cc4)cc3Oc3c(C)cccc3C)cn(C)c(=O)c2[nH]1 [Example 173, 4-{4-[benzyl(4-chlorobenzyl)carbamoyl]-2-(2,6-dimethylphenoxy)phenyl}-N-ethyl-6-methyl-7-oxo-6,7-dihydro-1H-pyrrolo[2,3-c]pyridine-2-carboxamide]",> 12700,64.3,5250
"CCNC(=O)c1cc2c(-c3ccc(C(=O)N(CC#N)c4cccc(C(F)(F)F)c4)cc3Oc3c(C)cccc3C)cn(C)c(=O)c2[nH]1 [Example 171, 4-[4-{(cyanomethyl)[3-(trifluoromethyl)phenyl]carbamoyl}-2-(2,6-dimethylphenoxy)phenyl]-N-ethyl-6-methyl-7-oxo-6,7-dihydro-1H-pyrrolo[2,3-c]pyridine-2-carboxamide]",> 12700,38.3,6410
"CCNC(=O)c1cc2c(-c3ccc(C(=O)N(CCN(CC)CC)c4ccccc4C)cc3Oc3c(C)cccc3C)cn(C)c(=O)c2[nH]1 [Example 170, 4-[4-{[2-(diethylamino)ethyl](2-methylphenyl)carbamoyl}-2-(2,6-dimethylphenoxy)phenyl]-N-ethyl-6-methyl-7-oxo-6,7-dihydro-1H-pyrrolo[2,3-c]pyridine-2-carboxamide]",863,4.22,2170
"CCNC(=O)c1cc2c(-c3ccc(C(=O)N(CCCN(C)C)C4CCCCC4)cc3Oc3c(C)cccc3C)cn(C)c(=O)c2[nH]1 [Example 172, 4-[4-{cyclohexyl[3-(dimethylamino)propyl]carbamoyl}-2-(2,6-dimethylphenoxy)phenyl]-N-ethyl-6-methyl-7-oxo-6,7-dihydro-1H-pyrrolo[2,3-c]pyridine-2-carboxamide]",1000,6.66,2540
"CCNC(=O)c1cc2c(-c3ccc(C(=O)N(CC#N)c4ccccc4)cc3Oc3c(C)cccc3C)cn(C)c(=O)c2[nH]1 [Example 177, 4-{4-[(cyanomethyl)(phenyl)carbamoyl]-2-(2,6-dimethylphenoxy)phenyl}-N-ethyl-6-methyl-7-oxo-6,7-dihydro-1H-pyrrolo[2,3-c]pyridine-2-carboxamide]",1490,9.21,10000
"CCNC(=O)c1cc2c(-c3ccc(C(=O)N(c4ccccc4)C4CCCCC4)cc3Oc3c(C)cccc3C)cn(C)c(=O)c2[nH]1 [Example 186, 4-{4-[cyclohexyl(phenyl)carbamoyl]-2-(2,6-dimethylphenoxy)phenyl}-N-ethyl-6-methyl-7-oxo-6,7-dihydro-1H-pyrrolo[2,3-c]pyridine-2-carboxamide]",> 12700,178,7650
"CCNC(=O)c1cc2c(-c3ccc(C(=O)N(CCCC(=O)OCC)c4ccccc4)cc3Oc3c(C)cccc3C)cn(C)c(=O)c2[nH]1 [Example 180, ethyl 4-[{3-(2,6-dimethylphenoxy)-4-[2-(ethylcarbamoyl)-6-methyl-7-oxo-6,7-dihydro-1H-pyrrolo[2,3-c]pyridin-4-yl]benzoyl}(phenyl)amino]butanoate]",8610,30.8,6060
"CCNC(=O)c1cc2c(-c3ccc(C(=O)N(CC#N)C(C)Cc4ccccc4)cc3Oc3c(C)cccc3C)cn(C)c(=O)c2[nH]1 (stereo not drawn) [Example 166, 4-{4-[(cyanomethyl)(1-phenylpropan-2-yl)carbamoyl]-2-(2,6-dimethylphenoxy)phenyl}-N-ethyl-6-methyl-7-oxo-6,7-dihydro-1H-pyrrolo[2,3-c]pyridine-2-carboxamide]",> 12700,17.5,3030
"Cc1cccc(C)c1Oc1ccc(S(C)(=O)=O)cc1-c1cn(C)c(=O)c2[nH]c(C(=O)NCCCN(C)C3CCCCC3)cc12 [Example 187, N-{3-[cyclohexyl(methyl)amino]propyl}-4-[2-(2,6-dimethylphenoxy)-5-(methylsulfonyl)phenyl]-6-methyl-7-oxo-6,7-dihydro-1H-pyrrolo[2,3-c]pyridine-2-carboxamide]",99.8,2.52,290
"CCNC(=O)c1cc2c(-c3ccc(C(=O)N(CCCN4CCCC4)C(C)Cc4ccccc4)cc3Oc3c(C)cccc3C)cn(C)c(=O)c2[nH]1 (stereo not drawn) [Example 165, 4-[2-(2,6-dimethylphenoxy)-4-{(1-phenylpropan-2-yl) [3-(pyrrolidin-1-yl)propyl]carbamoyl}phenyl]-N-ethyl-6-methyl-7-oxo-6,7-dihydro-1H-pyrrolo[2,3-c]pyridine-2-carboxamide]",429,4.48,1460
"CCNC(=O)c1cc2c(-c3ccc(C(=O)N(CCN(C)C)c4ccccn4)cc3Oc3c(C)cccc3C)cn(C)c(=O)c2[nH]1 [Example 181, 4-[4-{[2-(dimethylamino)ethyl](pyridin-2-yl)carbamoyl}-2-(2,6-dimethylphenoxy)phenyl]-N-ethyl-6-methyl-7-oxo-6,7-dihydro-1H-pyrrolo[2,3-c]pyridine-2-carboxamide]",1730,9.18,3980
"CCNC(=O)c1cc2c(-c3ccc(C(=O)N(CC#N)c4ccc(OC)cc4)cc3Oc3c(C)cccc3C)cn(C)c(=O)c2[nH]1 [Example 183, 4-{4-[(cyanomethyl)(4-methoxyphenyl)carbamoyl]-2-(2,6-dimethylphenoxy)phenyl}-N-ethyl-6-methyl-7-oxo-6,7-dihydro-1H-pyrrolo[2,3-c]pyridine-2-carboxamide]",2800,14.1,1480
"CCNC(=O)c1cc2c(-c3ccc(C(=O)N(CC#N)CC(C)c4ccccc4)cc3Oc3c(C)cccc3C)cn(C)c(=O)c2[nH]1 (stereo not drawn) [Example 167, 4-{4-[(cyanomethyl)(2-phenylpropyl)carbamoyl]-2-(2,6-dimethylphenoxy)phenyl}-N-ethyl-6-methyl-7-oxo-6,7-dihydro-1H-pyrrolo[2,3-c]pyridine-2-carboxamide]",> 12700,34.4,2020
